Tests used:
LoVo = assay: cells; details: Homo sapiens, LoVo, 48 h; for GI50: read-out: LOVO GI50; for CC50: read-out: LOVO LC50; for IC (TGI): read-out: LOVO TGI
Outline: (§1)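 Colorimetric SRB read (490 nm) on triplicate wells after 48 h at 37 °C, 5% CO2. Dose range 10 to 10^−8 μg/ml; 5×10^3 cells/well pre-attached 18 h.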

A-549 = assay: cells; details: Homo sapiens, A549, 48 h; for GI50: read-out: A549 GI50; for CC50: read-out: A549 LC50; for IC (TGI): read-out: A549 TGI
Outline: as §1

HT-29 = assay: cells; details: Homo sapiens, HT-29, 48 h; for GI50: read-out: HT29 GI50; for CC50: read-out: HT29 LC50; for IC (TGI): read-out: HT29 TGI
Outline: as §1

K-562 = assay: Inhibition of cells growth by colorimetric assay (SRB); details: Homo sapiens, K562, 48 h; for GI50: read-out: K562 GI50; for CC50: read-out: K562 LC50; for IC (TGI): read-out: K562 TGI
Outline: as §1

HeLa = assay: as above; details: Homo sapiens, HeLa, 48 h; for GI50: read-out: HELA GI50; for CC50: read-out: HELA LC50; for IC (TGI): read-out: HELA TGI
Outline: as §1

IGROV-ET = assay: as above; details: Homo sapiens, 48 h; for GI50: read-out: IGROV-ET GI50; for CC50: read-out: IGROV-ET LC50; for IC (TGI): read-out: IGROV-ET TGI
Outline: as §1

SK-BR-3 = assay: as above; details: Homo sapiens, SK-BR-3, 48 h; for GI50: read-out: SK-BR3 GI50; for CC50: read-out: SK-BR3 LC50; for IC (TGI): read-out: SK-BR3 TGI
Outline: as §1

DU-145 = assay: as above; details: Homo sapiens, DU-145, 48 h; for GI50: read-out: DU145 GI50; for CC50: read-out: DU145 LC50; for IC (TGI): read-out: DU145 TGI
Outline: as §1

PANC-1 = assay: as above; details: Homo sapiens, PANC-1, 48 h; for GI50: read-out: PANC-1 GI50; for CC50: read-out: PANC-1 LC50; for IC (TGI): read-out: PANC-1 TGI
Outline: as §1

HeLa-APL = assay: as above; details: Homo sapiens, 48 h; for GI50: read-out: HELA-APL GI50; for CC50: read-out: HELA-APL LC50; for IC (TGI): read-out: HELA-APL TGI
Outline: as §1

LoVo-Dox = assay: as above; details: Homo sapiens, 48 h; for GI50: read-out: LOVO-DOX GI50; for CC50: read-out: LOVO-DOX LC50; for IC (TGI): read-out: LOVO-DOX TGI
Outline: as §1

LNCaP = assay: as above; details: Homo sapiens, LNCaP, 48 h; for GI50: read-out: LNCAP GI50; for CC50: read-out: LNCAP LC50; for IC (TGI): read-out: LNCAP TGI
Outline: as §1

SK-MEL-28 = assay: as above; details: Homo sapiens, SK-MEL-28, 48 h; for GI50: read-out: MEL-28 GI50; for CC50: read-out: MEL-28 LC50; for IC (TGI): read-out: MEL-28 TGI
Outline: as §1

IGROV-1 = assay: as above; details: Homo sapiens, IGROV-1, 48 h; for GI50: read-out: IGROV GI50; for CC50: read-out: IGROV LC50; for IC (TGI): read-out: IGROV TGI
Outline: as §1

Q: For `COc1cc2c(cc1O)CCN[C@]21CS[C@@H]2c3c(OC(=O)/C=C/c4ccccc4)c(C)c4c(c3[C@H](COC1=O)N1C2[C@@H]2N[C@@H](Cc3cc(C)c(OC)c(O)c32)[C@@H]1O)OCO4` (stereo partly drawn) [compound 53], which GI50 (LoVo) is on record?
A: 3.82 nM

Q: And the CC50 (LoVo)?
A: 2940 nM

Q: And the IC (TGI) (LoVo)?
A: 8.54 nM

Q: And the GI50 (A-549)?
A: 3.34 nM

Q: And the CC50 (A-549)?
A: 2210 nM

Q: What about the IC (TGI) (A-549) of the same compound?
A: 8.17 nM

Q: And the GI50 (HT-29)?
A: 4.33 nM

Q: What about the CC50 (HT-29) of the same compound?
A: 2740 nM

Q: What about the IC (TGI) (HT-29) of the same compound?
A: 18.3 nM

Q: And the GI50 (K-562)?
A: 1.54 nM

Q: And the CC50 (K-562)?
A: 583 nM

Q: And the IC (TGI) (K-562)?
A: 13 nM

Q: What about the GI50 (HeLa) of the same compound?
A: 3.12 nM

Q: And the CC50 (HeLa)?
A: 83.9 nM

Q: And the IC (TGI) (HeLa)?
A: 7.55 nM

Q: What about the GI50 (IGROV-ET) of the same compound?
A: 10.2 nM

Q: What about the CC50 (IGROV-ET) of the same compound?
A: 6450 nM

Q: And the IC (TGI) (IGROV-ET)?
A: 1400 nM

Q: What about the GI50 (SK-BR-3) of the same compound?
A: 2.95 nM

Q: And the CC50 (SK-BR-3)?
A: 1820 nM

Q: And the IC (TGI) (SK-BR-3)?
A: 29.9 nM

Q: What about the GI50 (DU-145) of the same compound?
A: 3.58 nM

Q: What about the CC50 (DU-145) of the same compound?
A: 3040 nM

Q: What about the IC (TGI) (DU-145) of the same compound?
A: 24.3 nM

Q: And the GI50 (PANC-1)?
A: 3.36 nM

Q: What about the CC50 (PANC-1) of the same compound?
A: 1440 nM

Q: And the IC (TGI) (PANC-1)?
A: 10.1 nM

Q: And the GI50 (HeLa-APL)?
A: 2.99 nM

Q: What about the CC50 (HeLa-APL) of the same compound?
A: 38.9 nM

Q: And the IC (TGI) (HeLa-APL)?
A: 12.2 nM

Q: And the GI50 (LoVo-Dox)?
A: 57.9 nM

Q: What about the CC50 (LoVo-Dox) of the same compound?
A: 5240 nM

Q: What about the IC (TGI) (LoVo-Dox) of the same compound?
A: 1450 nM

Q: What about the GI50 (LNCaP) of the same compound?
A: 1.87 nM

Q: What about the CC50 (LNCaP) of the same compound?
A: 8.33 nM

Q: What about the IC (TGI) (LNCaP) of the same compound?
A: 3.95 nM

Q: What about the GI50 (SK-MEL-28) of the same compound?
A: 2.21 nM

Q: What about the CC50 (SK-MEL-28) of the same compound?
A: 7.2 nM

Q: And the IC (TGI) (SK-MEL-28)?
A: 4 nM

Q: What about the GI50 (IGROV-1) of the same compound?
A: 2.74 nM

Q: And the CC50 (IGROV-1)?
A: 2740 nM

Q: And the IC (TGI) (IGROV-1)?
A: 6.72 nM

Q: Which results are given for `CCCCCCCC(=O)Oc1c(C)c2c(c3c1[C@H]1SC[C@]4(NCCc5cc(O)c(OC)cc54)C(=O)OC[C@@H]3N3C1[C@@H]1N[C@@H](Cc4cc(C)c(OC)c(O)c41)[C@@H]3O)OCO2` (stereo partly drawn) [compound 54]?
A: GI50 (LoVo): 3.85 nM; CC50 (LoVo): 12000 nM; IC (TGI) (LoVo): 14.4 nM; GI50 (A-549): 20.2 nM; CC50 (A-549): 636 nM; IC (TGI) (A-549): 66.3 nM; GI50 (HT-29): 29.9 nM; CC50 (HT-29): 12000 nM; IC (TGI) (HT-29): 123 nM; GI50 (K-562): 1.88 nM; CC50 (K-562): 2700 nM; IC (TGI) (K-562): 5.18 nM; GI50 (HeLa): 21.9 nM; CC50 (HeLa): 376 nM; IC (TGI) (HeLa): 64.1 nM; GI50 (IGROV-ET): 37 nM; CC50 (IGROV-ET): 12000 nM; IC (TGI) (IGROV-ET): 120 nM; GI50 (SK-BR-3): 12.7 nM; CC50 (SK-BR-3): 12000 nM; IC (TGI) (SK-BR-3): 154 nM; GI50 (DU-145): 3.76 nM; CC50 (DU-145): 12000 nM; IC (TGI) (DU-145): 22 nM; GI50 (PANC-1): 23 nM; CC50 (PANC-1): 5310 nM; IC (TGI) (PANC-1): 64.8 nM; GI50 (HeLa-APL): 13.3 nM; CC50 (HeLa-APL): 459 nM; IC (TGI) (HeLa-APL): 143 nM; GI50 (LoVo-Dox): 338 nM; CC50 (LoVo-Dox): 12000 nM; IC (TGI) (LoVo-Dox): 12000 nM; GI50 (LNCaP): 7.42 nM; CC50 (LNCaP): 109 nM; IC (TGI) (LNCaP): 29.3 nM; GI50 (SK-MEL-28): 15.5 nM; CC50 (SK-MEL-28): 83.9 nM; IC (TGI) (SK-MEL-28): 36.1 nM; GI50 (IGROV-1): 6.56 nM; CC50 (IGROV-1): 3370 nM; IC (TGI) (IGROV-1): 39.4 nM

Q: Which results are given for `C=CCN1[C@@H]2c3c(cc(C)c(OC)c3O)C[C@H]1[C@H](C#N)N1C2[C@@H]2SC[C@]3(NCCc4c3[nH]c3ccc(OC)cc43)C(=O)OC[C@H]1c1c3c(c(C)c(OC(C)=O)c12)OCO3` (stereo partly drawn) [compound 56]?
A: GI50 (LoVo): 23 nM; CC50 (LoVo): 101 nM; IC (TGI) (LoVo): 48.2 nM; GI50 (A-549): 30.2 nM; CC50 (A-549): 705 nM; IC (TGI) (A-549): 68.7 nM; GI50 (HT-29): 48.8 nM; CC50 (HT-29): 12000 nM; IC (TGI) (HT-29): 571 nM; GI50 (K-562): 6.89 nM; CC50 (K-562): 12000 nM; IC (TGI) (K-562): 86.8 nM; GI50 (HeLa): 27.1 nM; CC50 (HeLa): 104 nM; IC (TGI) (HeLa): 53.1 nM; GI50 (IGROV-ET): 40.2 nM; CC50 (IGROV-ET): 12000 nM; IC (TGI) (IGROV-ET): 79.7 nM; GI50 (SK-BR-3): 5.71 nM; CC50 (SK-BR-3): 422 nM; IC (TGI) (SK-BR-3): 18.6 nM; GI50 (DU-145): 41 nM; CC50 (DU-145): 12000 nM; IC (TGI) (DU-145): 101 nM; GI50 (PANC-1): 90.2 nM; CC50 (PANC-1): 12000 nM; IC (TGI) (PANC-1): 953 nM; GI50 (HeLa-APL): 25.9 nM; CC50 (HeLa-APL): 204 nM; IC (TGI) (HeLa-APL): 58.3 nM; GI50 (LoVo-Dox): 333 nM; CC50 (LoVo-Dox): 12000 nM; IC (TGI) (LoVo-Dox): 1330 nM; GI50 (LNCaP): 12.2 nM; CC50 (LNCaP): 67.7 nM; IC (TGI) (LNCaP): 28.8 nM; GI50 (SK-MEL-28): 26.3 nM; CC50 (SK-MEL-28): 91.4 nM; IC (TGI) (SK-MEL-28): 49 nM; GI50 (IGROV-1): 34.2 nM; CC50 (IGROV-1): 1060 nM; IC (TGI) (IGROV-1): 69.3 nM
